Data reported in patent publication US7229635B2, “Pharmacotherapeutic process and composition for central nervous system disorders” (Indiana University Research and Technology Corporation, priority 2000, dated 2007).

Tests used:
rat hippocampal slices = test: 50 mM [K+]-stimulated glutamate release from superfused hippocampal slices; type: cell-based; details: for glutamate at 10 min. post stimulation: control 4.37±1.29, p<0.05; for peak 50 mM [K+]-stimulated glutamate release: control 48.05±8.59, p<0.001
Protocol: Enhanced excitatory amino acid release is suspected in pathways associated with seizures and excitotoxicity. In this regard, superfused hippocampal slices were used to investigate whether TRH could inhibit glutamate release in vitro. Rat hippocampi were removed and sliced transversely (500/μm) under low magnification. Slices were weighed, washed in cold saline, transferred to individual tissue chambers floated in a 37°/C. water bath, and were equilibrated in oxygenated (95% O2/5% CO2) Kreb's buffer (KRB) at 37° C. for 120 min. (0.5 ml/min). Slice chambers were then superfused 10 min. with KRB (control), or KRB containing 10 μM, 1 μM, or 0.1 μM TRH, respectively, prior to 5 min. stimulation with modified KRB (50 mM [K^+]±TRH). Fractions (1 min.) were collected during the 5 min. stimulation and for an additional 10 min. (0.5 ml/min.) thereafter, and analyzed for glutamate by HPLC.

[1] = test system: kindled seizures (amygdala); details: delivery of about 10^−6 to about 10^−12 M TRH to the brain; Example 3 and Chepournova et al.; cited from earlier work
Gαq/11 G-proteins = details: sustained TRH exposure to its receptor; cited from earlier work

SMILES: NC(=O)[C@@H]1CCCN1C(=O)[C@H](Cc1cnc[nH]1)NC(=O)[C@@H]1CCC(=O)N1 [TRH, Thyrotropin-releasing hormone]
- glutamate at 10 min. post stimulation (rat hippocampal slices; 0.1 μM TRH): 1.54±0.43 μMg/fraction
- peak 50 mM [K+]-stimulated glutamate release (rat hippocampal slices; 0.1 μM TRH): 1.38±0.28 μMg/fraction
- glutamate at 10 min. post stimulation (rat hippocampal slices; 1 μM TRH): 1.11±0.26 μMg/fraction
- peak 50 mM [K+]-stimulated glutamate release (rat hippocampal slices; 1 μM TRH): 1.54±0.33 μMg/fraction
- glutamate at 10 min. post stimulation (rat hippocampal slices; 10 μM TRH): 1.35±0.48 μMg/fraction
- peak 50 mM [K+]-stimulated glutamate release (rat hippocampal slices; 10 μM TRH): 2.35±0.50 μMg/fraction
- effect on glutamate release by 50 mM [K+] stimulation given 15 min. later (rat hippocampal slices; perfusion (5 min.) with KRB+10 μM TRH, FIG. 6): significantly (p<0.05) blocked glutamate release
- effect in kindling studies [1]: anticonvulsant
- reduction of Gαq/11 G-proteins (Gαq/11 G-proteins): 20-70%
